In patent US4315928A, “N-Aminosulfenyl carbamate compounds, compositions and use” (priority 1975, dated 1982):

Experiments:
rat = assay: in vivo; conditions: oral, statement on Table I
Experimental: (§1) These compositions were also evaluated to determine their peroral toxicity to mammals by conventional methods. The animal selected for this experiment was the rat.

green beans = assay: Phytotoxicity Test, green beans; format: in vivo; set-up: key: A rating of 1 indicates no perceptible injury; ratings of 2, 3 and 4 indicate intermediate degrees of injury; ratings of 2, 3 and 4 indicate intermediate degrees of injury; ratings of 2, 3 and 4 indicate intermediate degrees of injury; 5 indicates the plant was dead; conditions: ten days
Experimental: (§2) Suspensions of the test compounds were prepared by dissolving one gram of compound in 50 milliliters of acetone in which had been dissolved 0.1 gram (10 percent of the weight of compound) of an alkylphenoxy polyethoxyethanol surfactant, as an emulsifying or dispersing agent. The resulting solution was mixed into 150 milliliters of water to give roughly 200 milliliters of a suspension containing the compound in finely divided form. The thus-prepared stock suspension contained 0.5 percent by weight of compound. The test concentrations in parts per million by weight employed in the tests described hereinbelow were obtained by appropriate dilutions of the stock suspension with water. The test procedures were as follows:
(§3) Experiments were also conducted to determine the phytotoxicity of representative compositions with respect to healthy fresh plants. Solutions of the compounds were prepared as described above to provide a concentration of 2500 parts per million of the test compound. The test plants were sprayed in accordance with the procedure described above for the Mite Foliage Spray Test so as to deliver approximately 100 milliliters of test solution to the leaves of each plant tested. The sprayed plants and controls were set aside for approximately one hour to allow the solutions to dry and were then placed in the greenhouse. After ten days the plants were visually inspected to determine the extent of foliage injury. A rating of 1 indicates no perceptible injury; 5 indicates the plant was dead and ratings of 2, 3 and 4 indicate intermediate degrees of injury based upon the number and extent to which leaves were injured.

corn = assay: Phytotoxicity Test, corn; format: in vivo; set-up: key: A rating of 1 indicates no perceptible injury; ratings of 2, 3 and 4 indicate intermediate degrees of injury; ratings of 2, 3 and 4 indicate intermediate degrees of injury; ratings of 2, 3 and 4 indicate intermediate degrees of injury; 5 indicates the plant was dead; conditions: ten days
Experimental: as §2, §3

tomato = assay: Phytotoxicity Test, tomato; format: in vivo; set-up: key: A rating of 1 indicates no perceptible injury; ratings of 2, 3 and 4 indicate intermediate degrees of injury; ratings of 2, 3 and 4 indicate intermediate degrees of injury; ratings of 2, 3 and 4 indicate intermediate degrees of injury; 5 indicates the plant was dead; conditions: ten days
Experimental: as §2, §3

cotton = assay: Phytotoxicity Test, cotton; format: in vivo; set-up: key: A rating of 1 indicates no perceptible injury; ratings of 2, 3 and 4 indicate intermediate degrees of injury; ratings of 2, 3 and 4 indicate intermediate degrees of injury; ratings of 2, 3 and 4 indicate intermediate degrees of injury; 5 indicates the plant was dead; conditions: ten days
Experimental: as §2, §3

soybeans = assay: Phytotoxicity Test, soybeans; format: in vivo; set-up: key: A rating of 1 indicates no perceptible injury; ratings of 2, 3 and 4 indicate intermediate degrees of injury; ratings of 2, 3 and 4 indicate intermediate degrees of injury; ratings of 2, 3 and 4 indicate intermediate degrees of injury; 5 indicates the plant was dead; conditions: ten days
Experimental: as §2, §3

in vivo = conditions: rat, in vivo, po
Experimental: as §1

[1] = test system: bean aphid (Aphis fabae Scop.); assay: whole plant or invertebrate; conditions: foliar, 24 h, read-out: Insect Toxicity, % Kill at 250 ppm, BA
[2] = test system: two-spotted mite (Tetranychus urticae Koch); assay: whole plant or invertebrate; conditions: foliar, 144 h, read-out: Insect Toxicity, % Kill at 250 ppm, TSM
[3] = test system: southern armyworm (Prodenia eridania, (Cram.)); assay: whole plant or invertebrate; conditions: Spodoptera eridania, 72 h, read-out: Insect Toxicity, % Kill at 250 ppm, SAW
[4] = test system: Mexican bean beetle (Epilachna varivestis, Muls.); assay: whole plant or invertebrate; conditions: 72 h, read-out: Insect Toxicity, % Kill at 250 ppm, MBB
[5] = test system: house flies (Musca domestica, L.); assay: whole plant or invertebrate; conditions: po, 24 h, read-out: Insect Toxicity, % Kill at 250 ppm, HF

Compound: CSC(C)=NOC(=O)N(C)SN1CCOCC1 [Compound 3, S-Methyl N-[N'-Methyl-N'-(4-Morpholinosulfenyl)carbamoyloxy]-thioacetimidate]
- mammalian toxicity (in words) (rat): extremely low mammalian toxicity
- Crop Phytotoxicity, Injury Rating at 2500 ppm, GB (green beans): 1
- Crop Phytotoxicity, Injury Rating at 2500 ppm, CN (corn): 1
- Crop Phytotoxicity, Injury Rating at 2500 ppm, TOM (tomato): 1
- Crop Phytotoxicity, Injury Rating at 2500 ppm, COT. (cotton): 1
- Crop Phytotoxicity, Injury Rating at 2500 ppm, SOYBN. (soybeans): 1

Compound: CCSC(C)=NOC(=O)N(C)SN1CCOCC1 [Compound 4, S-Ethyl-N-[N'-Methyl-N'-(4-Morpholinosulfenyl)Carbamoyloxy]Thioacetimidate]
- LD50 (in vivo): 141 mg/kg
- mammalian toxicity (in words) (rat): extremely low mammalian toxicity
- Crop Phytotoxicity, Injury Rating at 2500 ppm, GB (green beans): 1
- Crop Phytotoxicity, Injury Rating at 2500 ppm, CN (corn): 1
- Crop Phytotoxicity, Injury Rating at 2500 ppm, TOM (tomato): 1
- Crop Phytotoxicity, Injury Rating at 2500 ppm, COT. (cotton): 1
- Crop Phytotoxicity, Injury Rating at 2500 ppm, SOYBN. (soybeans): 2
- mortality at 250 ppm [1]: 100%
- mortality at 250 ppm [2]: 100%
- mortality at 250 ppm [3]: 100%
- mortality at 250 ppm [4]: 100%
- mortality at 250 ppm [5]: 100%

Compound: CC(=NOC(=O)N(C)SN1CCOCC1)SCCC#N [Compound 8, S-(2-Cyanoethyl)-N-[N'-Methyl-N'-(4-Morpholinosulfenyl)carbamoyloxy]thioacetimidate]
- LD50 (in vivo): 22 mg/kg
- Crop Phytotoxicity, Injury Rating at 2500 ppm, GB (green beans): 1
- Crop Phytotoxicity, Injury Rating at 2500 ppm, CN (corn): 1
- Crop Phytotoxicity, Injury Rating at 2500 ppm, TOM (tomato): 1
- Crop Phytotoxicity, Injury Rating at 2500 ppm, COT. (cotton): 1
- Crop Phytotoxicity, Injury Rating at 2500 ppm, SOYBN. (soybeans): 1
- mortality at 250 ppm [1]: 100%
- mortality at 250 ppm [2]: 100%
- mortality at 250 ppm [3]: 100%
- mortality at 250 ppm [4]: 100%
- mortality at 250 ppm [5]: 100%

Compound: CC1OCSC1=NOC(=O)N(C)SN1CCOCC1 (centres unmarked) [Compound 9, 5-Methyl-4-N-[N'-Methyl-N'-(4-Morpholinosulfenyl)carbamoyloxy]imino-1,3-Oxathiolane]
- LD50 (in vivo): 16 mg/kg
- Crop Phytotoxicity, Injury Rating at 2500 ppm, GB (green beans): 1
- Crop Phytotoxicity, Injury Rating at 2500 ppm, CN (corn): 1
- Crop Phytotoxicity, Injury Rating at 2500 ppm, TOM (tomato): 2
- Crop Phytotoxicity, Injury Rating at 2500 ppm, COT. (cotton): 1
- Crop Phytotoxicity, Injury Rating at 2500 ppm, SOYBN. (soybeans): 2
- mortality at 250 ppm [1]: 100%
- mortality at 250 ppm [2]: 100%
- mortality at 250 ppm [3]: 100%
- mortality at 250 ppm [4]: 100%
- mortality at 250 ppm [5]: 100%

Compound: CSC(C)=NOC(=O)N(C)SN(C)C [Compound 11, S-Methyl N-[N'-Methyl-N'-(Dimethylaminosulfenyl)carbamoyloxy]thioacetimidate]
- LD50 (in vivo): 141 mg/kg
- mammalian toxicity (in words) (rat): extremely low mammalian toxicity
- Crop Phytotoxicity, Injury Rating at 2500 ppm, GB (green beans): 1
- Crop Phytotoxicity, Injury Rating at 2500 ppm, CN (corn): 1
- Crop Phytotoxicity, Injury Rating at 2500 ppm, TOM (tomato): 2
- Crop Phytotoxicity, Injury Rating at 2500 ppm, COT. (cotton): 1
- Crop Phytotoxicity, Injury Rating at 2500 ppm, SOYBN. (soybeans): 1
- mortality at 250 ppm [1]: 100%
- mortality at 250 ppm [2]: 50%
- mortality at 250 ppm [3]: 100%
- mortality at 250 ppm [4]: 100%
- mortality at 250 ppm [5]: 100%

Compound: CSC(C)=NOC(=O)N(C)SN1CCCCC1 [Compound 12, S-Methyl-N-[N'-Methyl-N'-(1-Piperidinosulfenyl)Carbamoyloxy]Thioacetimidate]
- LD50 (in vivo): 141 mg/kg
- mammalian toxicity (in words) (rat): extremely low mammalian toxicity
- Crop Phytotoxicity, Injury Rating at 2500 ppm, GB (green beans): 1
- Crop Phytotoxicity, Injury Rating at 2500 ppm, CN (corn): 1
- Crop Phytotoxicity, Injury Rating at 2500 ppm, TOM (tomato): 1
- Crop Phytotoxicity, Injury Rating at 2500 ppm, COT. (cotton): 1
- Crop Phytotoxicity, Injury Rating at 2500 ppm, SOYBN. (soybeans): 1
- mortality at 250 ppm [1]: 100%
- mortality at 250 ppm [2]: 100%
- mortality at 250 ppm [3]: 100%
- mortality at 250 ppm [4]: 100%
- mortality at 250 ppm [5]: 100%

Compound: CCN(CC)SN(C)C(=O)ON=C(C)SC [Compound 17]
- LD50 (in vivo): 178 mg/kg
- mammalian toxicity (in words) (rat): extremely low mammalian toxicity
- Crop Phytotoxicity, Injury Rating at 2500 ppm, GB (green beans): 2
- Crop Phytotoxicity, Injury Rating at 2500 ppm, CN (corn): 2
- Crop Phytotoxicity, Injury Rating at 2500 ppm, TOM (tomato): 1
- Crop Phytotoxicity, Injury Rating at 2500 ppm, COT. (cotton): 2
- Crop Phytotoxicity, Injury Rating at 2500 ppm, SOYBN. (soybeans): 2
- mortality at 250 ppm [1]: 100%
- mortality at 250 ppm [2]: 80%
- mortality at 250 ppm [3]: 100%
- mortality at 250 ppm [4]: 100%
- mortality at 250 ppm [5]: 100%

Compound: CN(C)SN(C)C(=O)ON=C1CSCCS1 [Compound 23, 2-N-[N'-Methyl-N'-(Dimethylaminosulfenyl)carbamoyloxy]imino-1,4-Dithiane]
- LD50 (in vivo): 15 mg/kg
- Crop Phytotoxicity, Injury Rating at 2500 ppm, GB (green beans): 1
- Crop Phytotoxicity, Injury Rating at 2500 ppm, CN (corn): 1
- Crop Phytotoxicity, Injury Rating at 2500 ppm, TOM (tomato): 1
- Crop Phytotoxicity, Injury Rating at 2500 ppm, COT. (cotton): 2
- Crop Phytotoxicity, Injury Rating at 2500 ppm, SOYBN. (soybeans): 1
- mortality at 250 ppm [1]: 100%
- mortality at 250 ppm [2]: 100%
- mortality at 250 ppm [3]: 100%
- mortality at 250 ppm [4]: 100%
- mortality at 250 ppm [5]: 100%

Compound: CC(=NOC(=O)N(C)SN(C)C)SC(C)C [Compound 24, S-Isopropyl-N-[N'-Methyl-N'-(Dimethylaminosulfenyl)carbamoloxy]thioacetimidate]
- LD50 (in vivo): 28.3 mg/kg
- Crop Phytotoxicity, Injury Rating at 2500 ppm, GB (green beans): 2
- Crop Phytotoxicity, Injury Rating at 2500 ppm, CN (corn): 1
- Crop Phytotoxicity, Injury Rating at 2500 ppm, TOM (tomato): 2
- Crop Phytotoxicity, Injury Rating at 2500 ppm, COT. (cotton): 2
- Crop Phytotoxicity, Injury Rating at 2500 ppm, SOYBN. (soybeans): 3
- mortality at 250 ppm [1]: 100%
- mortality at 250 ppm [2]: 100%
- mortality at 250 ppm [3]: 100%
- mortality at 250 ppm [4]: 100%
- mortality at 250 ppm [5]: 100%

Compound: CCCCN(CCCC)SN(C)C(=O)ON=C(C)SC [Compound 28, S-Methyl N-[N'-Methyl-N'-(Di-n-butylaminosulfenyl)Carbamoyloxy]-Thioacetimidate]
- LD50 (in vivo): 317 mg/kg
- mammalian toxicity (in words) (rat): extremely low mammalian toxicity
- Crop Phytotoxicity, Injury Rating at 2500 ppm, GB (green beans): 1
- Crop Phytotoxicity, Injury Rating at 2500 ppm, CN (corn): 1
- Crop Phytotoxicity, Injury Rating at 2500 ppm, TOM (tomato): 1
- Crop Phytotoxicity, Injury Rating at 2500 ppm, COT. (cotton): 1
- Crop Phytotoxicity, Injury Rating at 2500 ppm, SOYBN. (soybeans): 1
- mortality at 250 ppm [1]: 100%
- mortality at 250 ppm [2]: 50%
- mortality at 250 ppm [3]: 100%
- mortality at 250 ppm [4]: 100%
- mortality at 250 ppm [5]: 100%
